Measured values from patent EP1655284A1, “2-Phenylsulfopyrroles” (Aponetics AG, priority 2004, dated 2006).
pIC50: −log10 of the molar value.

How the values were obtained:
H460 [1] = assay: Hoechst 33342 nuclear staining; assay type: cell-based, human; design: key: 0: no activity; 1: weak activity comprising less than 50% of the cells; 2: strong activity comprising more than 50% of the cells; conditions: 48 hour read-out
Method: (§1) This assay is performed in 96 well tissue culture plates. Appropriate number of cells (adherent cells: 3 - 5*10^3, suspension cells: 8 - 10*10^3) are being seeded out in 80 µl complete medium. Adherent cells are incubated for 24 h for proper spreading out before addition of test compounds while suspension cells are immediately treated with test compounds after seeding out. The test compounds are added in 20 µl complete medium containing max 5% DMSO. […] After 24 h or 48 h incubation at culture conditions, 10 µl medium containing Hoechst 33342 dye (Sigma B-2261) at 2-5 µg/ml are added to each well. The assay plates are then further incubated for 30 minutes and subsequently analyzed with a standard inverted fluorescence microscope.
(§2) The readout allows the determination of the fraction of apoptotic nuclei as well as other morphological criteria specific for apoptosis as a function of the treatment. Table 2: Hoechst 33342 nuclear staining (48 hour read-out)

Jurkat [2] = assay: Hoechst 33342 nuclear staining; assay type: cell-based, human; design: key: 0: no activity; 1: weak activity comprising less than 50% of the cells; 2: strong activity comprising more than 50% of the cells; conditions: 48 hour read-out
Method: as §1, §2

HeLa [3] = assay: Hoechst 33342 nuclear staining; assay type: cell-based, human; design: key: 0: no activity; 1: weak activity comprising less than 50% of the cells; 2: strong activity comprising more than 50% of the cells; conditions: 48 hour read-out
Method: as §1, §2

H460 [4] = assay: MTS proliferation assay; assay type: cell-based; conditions: Homo sapiens, NCI-H460; H460, 72 h incubation
Method: (§3) The assay is performed in 96 well tissue culture plates. The cells (range : 1.5*10^3 - 10^4) are seeded out in 80 µl complete medium 24 h prior to compound treatment. The test compounds are added in 20 µl complete medium containing max 5% DMSO. The final compound concentrations in the assays are 10 µM, 3 µM, 1 µM and 0.3 µM, respectively. The assay plates are incubated for 72 h at culture conditions. The MTS reagent is prepared according to the manufacturer's protocol (Promega G1111). 20 µl MTS reagent are added to each well, the assay plates are quickly spun and incubated for another 3 h at culture conditions. Subsequently, the plates are shortly shaked and absorption measured with a microplate-reader at 492 nm. Table 3: MTS proliferation assay

Jily [5] = assay: MTS proliferation assay; assay type: cell-based; conditions: 72 h incubation
Method: as §3

Jurkat [6] = assay: MTS proliferation assay; assay type: cell-based; conditions: Homo sapiens, 72 h incubation
Method: as §3

HeLa [7] = assay: MTS proliferation assay; assay type: cell-based; conditions: Homo sapiens, 72 h incubation
Method: as §3

MRC5 = assay: MTS proliferation assay; assay type: cell-based; conditions: Homo sapiens; MRC5, 72 h incubation
Method: as §3

PBL = assay: Hoechst 33342 nuclear staining; assay type: cell-based; design: key: 0: no activity; 1: weak activity comprising less than 50% of the cells; 2: strong activity comprising more than 50% of the cells; conditions: 48 hour read-out
Method: as §1, §2

Jily [8] = assay: Hoechst 33342 nuclear staining; assay type: cell-based; design: key: 0: no activity; 1: weak activity comprising less than 50% of the cells; 2: strong activity comprising more than 50% of the cells; conditions: 48 hour read-out
Method: as §1, §2

| Compound | Hoechst 33342 nuclear staining score (fraction of apoptotic nuclei) (H460 [1]; H460, 0.01µM) | Hoechst 33342 nuclear staining score (fraction of apoptotic nuclei) (H460 [1]; H460, 0.1µM) | Hoechst 33342 nuclear staining score (fraction of apoptotic nuclei) (H460 [1]; H460, 1µM) | Hoechst 33342 nuclear staining score (fraction of apoptotic nuclei) (Jurkat [2]; 0.01µM) | Hoechst 33342 nuclear staining score (fraction of apoptotic nuclei) (Jurkat [2]; 0.1µM) | Hoechst 33342 nuclear staining score (fraction of apoptotic nuclei) (Jurkat [2]; 1µM) | Hoechst 33342 nuclear staining score (fraction of apoptotic nuclei) (HeLa [3]; 0.01µM) | Hoechst 33342 nuclear staining score (fraction of apoptotic nuclei) (HeLa [3]; 0.1µM) | Hoechst 33342 nuclear staining score (fraction of apoptotic nuclei) (HeLa [3]; 1µM) | pIC50 (H460 [4]) | pIC50 (Jily [5]) | pIC50 (Jurkat [6]) | pIC50 (HeLa [7]) | pIC50 (MRC5) | Hoechst 33342 nuclear staining score (fraction of apoptotic nuclei) (PBL; 0.01µM) | Hoechst 33342 nuclear staining score (fraction of apoptotic nuclei) (PBL; 0.1µM) | Hoechst 33342 nuclear staining score (fraction of apoptotic nuclei) (PBL; 1µM) | Hoechst 33342 nuclear staining score (fraction of apoptotic nuclei) (Jily [8]; 0.01µM) | Hoechst 33342 nuclear staining score (fraction of apoptotic nuclei) (Jily [8]; 0.1µM) | Hoechst 33342 nuclear staining score (fraction of apoptotic nuclei) (Jily [8]; 1µM) |
| --- | --- | --- | --- | --- | --- | --- | --- | --- | --- | --- | --- | --- | --- | --- | --- | --- | --- | --- | --- | --- |
| COc1ccc(S(=O)(=O)n2cc(Br)cc2-c2cc(OC)c(OC)c(OC)c2)cc1 [Example 1, 4-Bromo-1-p-methoxyphenylsulfonyl-2-(3,4,5-trimethoxyphenyl)-pyrrole] | 0 | 2 (strong activity comprising more than 50% of the cells.) | 2 (strong activity comprising more than 50% of the cells.) | 0 | 2 (strong activity comprising more than 50% of the cells.) | 2 (strong activity comprising more than 50% of the cells.) | 0 | 0 | 2 (strong activity comprising more than 50% of the cells.) | 6.00 to 7.00 | 6.00 to 7.00 | > 7.00 | 6.00 to 7.00 | 6.00 to 7.00 | 0 | 0 | 0 | 0 | 2 (strong activity comprising more than 50% of the cells.) | 2 (strong activity comprising more than 50% of the cells.) |
| COc1ccc(S(=O)(=O)n2cc(C(=O)Nc3ccc(N4CCOCC4)cc3)cc2-c2cc(OC)c(OC)c(OC)c2)cc1 [Example 3, N-p-morpholinophenyl-1-p-methoxyphenylsulfonyl-2-(3,4,5-trimethoxyphenyl)-Pyrrole-4-carboxamide] | 0 | 2 (strong activity comprising more than 50% of the cells.) | 2 (strong activity comprising more than 50% of the cells.) | 2 (strong activity comprising more than 50% of the cells.) | 2 (strong activity comprising more than 50% of the cells.) | 2 (strong activity comprising more than 50% of the cells.) | 0 | 2 (strong activity comprising more than 50% of the cells.) | 2 (strong activity comprising more than 50% of the cells.) | > 7.00 | > 7.00 | > 7.00 | > 7.00 | > 7.00 | 0 | 0 | 0 | 2 (strong activity comprising more than 50% of the cells.) | 2 (strong activity comprising more than 50% of the cells.) | 2 (strong activity comprising more than 50% of the cells.) |
| COc1ccc(S(=O)(=O)n2cccc2-c2cc(OC)c(OC)c(OC)c2)cc1 [Example 2, 1-p-methoxyphenylsulfonyl-2-(3,4,5-trimethoxyphenyl)-pyrrole] | 0 | 2 (strong activity comprising more than 50% of the cells.) | 2 (strong activity comprising more than 50% of the cells.) | 0 | 2 (strong activity comprising more than 50% of the cells.) | 2 (strong activity comprising more than 50% of the cells.) | 0 | 2 (strong activity comprising more than 50% of the cells.) | 2 (strong activity comprising more than 50% of the cells.) | > 7.00 | > 7.00 | > 7.00 | 6.00 to 7.00 | > 7.00 | 0 | 0 | 0 | 0 | 2 (strong activity comprising more than 50% of the cells.) | 2 (strong activity comprising more than 50% of the cells.) |
